These results are taken from publication PMC4413193, “3-[4-(1H-Indol-3-yl)-1,3-thiazol-2-yl]-1H-pyrrolo[2,3-b]pyridines, Nortopsentin Analogues with Antiproliferative Activity” (Marine Drugs, 2015).

Test [1] concerns SR. Nature of the test: NCI-60 in vitro tumor cell growth inhibition, SR (leukemia). As to conditions: Homo sapiens, five concentration levels 10^−4–10^−8 M. Type of test: cell-based. On the procedure:
(§1) All the synthesized thiazoles 3a–k were evaluated by the National Cancer Institute (Bethesda MD) for cytotoxicity against the NCI-60 cell line panel using standard protocols. Initially, the selected derivatives 3c,d,g,h,j,k were tested at a single dose (10^−5 M) on the full panel of approximately 60 human tumor cell lines derived from 9 human cancer cell types, that have been grouped in disease sub-panels including leukemia, non-small-cell lung, colon, central nervous system (CNS), melanoma, ovarian, renal, prostate and breast cancers (data not shown). Compounds 3d and 3k were further selected for full evaluation at five concentration levels (10^−4–10^−8 M).
(§2) The antitumor activity of compounds 3d and 3k was given by three parameters for each cell line: GI50 (the molar concentration of the compound that inhibits 50% net cell growth), TGI (the molar concentration of the compound leading to total inhibition of net cell growth), and LC50 (the molar concentration of the compound that induces 50% net cell death). The average values of mean graph midpoint (MG_MID) were calculated for each of these parameters.

The test system of test [2] is HT29. Description: NCI-60 in vitro tumor cell growth inhibition, HT29 (colon cancer). Type of test: cell-based. As to conditions: Homo sapiens, HT-29, five concentration levels. The method, then:
as §1, §2

Test [3] relates to KM12. Description: NCI-60 in vitro tumor cell growth inhibition, KM12 (colon cancer). Type of test: cell-based. Conditions: Homo sapiens, five concentration levels. The method, then:
as §1, §2

In test [4] the test system is SW-620. Description: NCI-60 in vitro tumor cell growth inhibition, SW-620 (colon cancer). Type of test: cell-based. As to conditions: Homo sapiens, five concentration levels. On the procedure: as §1, §2
The subject of test [5] is MDA-MB-435. Nature of the test: NCI-60 in vitro tumor cell growth inhibition, MDA-MB-435 (melanoma). As to conditions: Homo sapiens, five concentration levels. Type of test: cell-based. The method, then: as §1, §2
In test [6] the test system is OVCAR-3. Nature of the test: NCI-60 in vitro tumor cell growth inhibition, OVCAR-3 (ovarian cancer). Type of test: cell-based. Conditions: Homo sapiens, five concentration levels. On the procedure: as §1, §2
The test system of test [7] is SN12C. Description: NCI-60 in vitro tumor cell growth inhibition, SN12C (renal cancer). Type of test: cell-based. Conditions: Homo sapiens, five concentration levels. On the procedure: as §1, §2
Test [8] deals with MCF7. Nature of the test: NCI-60 in vitro tumor cell growth inhibition, MCF7 (breast cancer). Type of test: cell-based. Conditions: Homo sapiens, five concentration levels. On the procedure:
as §1, §2

Test [9] relates to HS 578T. Nature of the test: NCI-60 in vitro tumor cell growth inhibition, HS 578T (breast cancer). As to conditions: Homo sapiens, five concentration levels. Type of test: cell-based. On the procedure: as §1, §2
In test [10] the test system is leukemia cancer subpanel cell lines. Nature of the test: NCI-60 screen, leukemia subpanel summary. Type of test: cell-based. Conditions: Homo sapiens; range over the leukemia subpanel; read-out: GI50 of all the leukemia subpanel cell lines (range). On the procedure: as §1, §2
Test [11] relates to human HepG2 hepatocarcinoma cells. Nature of the test: MTT cell growth assay, HepG2. Type of test: cell-based. Conditions: 72 h, 0.1–10 μM. On the procedure: Cell growth inhibitory activity of compounds 3d and 3k was also investigated on human HepG2 hepatocarcinoma cells, a cell line not included in the NCI panel and of interest in the drug discovery because provided with a very active microsomal system for detoxification of xenobiotics. Monolayer cultures treated for 72 h with 0.1–10 μM concentrations of the compounds were examined by 3-(4,5-dimethylthiazol-2-yl)-2,5-diphenyltetrazolium bromide (MTT) assay for cell growth.
Human cell lines of hepatoma HepG2 and Chang liver were purchased from American Type Culture Collection, Rockville, MD, USA. Cells were grown in RPMI supplemented with 2 mM L-glutamine, 10% FBS, 100 U/mL penicillin, 100 μg/mL streptomycin and 5 μg/mL gentamicin. HepG2 culture medium also contained 1.0 mM sodium pyruvate. Cells were maintained in log phase by seeding twice a week at a density of 3 × 10^8 cells/L in humidified 5% CO2 atmosphere, at 37 °C. […] Cytotoxic activity of the compounds was determined by the MTT quantitative colorimetric assay based on the reduction of the 3-(4,5-dimethyl-2-thiazolyl)-2,5-diphenyl-2H-tetrazolium bromide (MTT) into purple formazan by mitochondrial dehydrogenases of living cells. […] The absorbance at 540 nm was measured in a microplate reader (Bio-RAD, Hercules, CA, USA). […]
A general note: Formazan colour is commonly taken as a measure of viable cells.

For test [12], the system named is HepG2 cells. Nature of the test: Cell cycle analysis by flow cytometry (PI staining). Type of test: cell-based, human. Conditions: HepG2, 24 h treatment. On the procedure:
The distribution of HepG2 cells in the cell cycle phases after 24 h treatment with the two norptopsentin analogues, was assessed by flow cytometric analysis after staining of DNA with PI.
Cell cycle stage was analyzed by flow cytometry. Aliquots of 1 × 10^6 cells were harvested by centrifugation, washed with PBS and incubated in the dark in a PBS solution containing 20 μg/mL propidium iodide (PI) and 200 μg/mL RNase, for 30 min, at room temperature. Then samples were subjected to fluorescence-activated cell sorting (FACS) analysis by Epics XL™ flow cytometer using Expo32 software (Beckman Coulter, Fullerton, CA, USA). At least 1 × 10^4 cells were analyzed for each sample.

Test [13] concerns NCI-H322M. Description: NCI-60 in vitro tumor cell growth inhibition, NCI-H322M (non-small cell lung cancer). Conditions: Homo sapiens, five concentration levels. Type of test: cell-based. The method, then: as §1, §2

Usually GI50 stands for the concentration that inhibits growth by half. Regarding `Cn1cc(-c2nc(-c3c[nH]c4ccccc34)cs2)c2cccnc21` [Compound 3k, 3-[4-(1H-Indol-3-yl)-1,3-thiazol-2-yl]-1-methyl-1H-pyrrolo[2,3-b]pyridine], the GI50 in [1] is 140 nM; in test [2], 190 nM; in test [3], 400 nM; in test [4] it was 300 nM; in test [5], 40 nM; in test [6] it was 250 nM. For the same molecule, the 50% growth inhibitory concentration (GI50) in test [7] was 5480 nM; in [8], 370 nM; in test [9], 660 nM; in test [10] it was 120 to 660 nM; in test [11], 210 nM. Besides, the “distribution of HepG2 cells in the cell cycle phases” value in [12] is “significant dose-dependent decrease in the percentage of cells in the G0/G1 and S phases, accompanied by a concomitant percentage increase of cells in the G2/M phase, and appearance of a subG1-cell population”.
For `Cn1cc(-c2csc(-c3cn(C)c4ncccc34)n2)c2ccccc21` [Compound 3d, 1-Methyl-3-[4-(1-methyl-1H-indol-3-yl)-1,3-thiazol-2-yl]-1H-pyrrolo[2,3-b]pyridine], the GI50 in test [1] was found to be 60 nM; in test [13], 760 nM; in test [2], 250 nM; in test [3], 210 nM; in test [4], 220 nM; in test [5], 30 nM. Further, the concentration for 50% growth inhibition (GI50) in test [6] is 100 nM; in [7] it was 12100 nM; in test [8], 330 nM; in test [9], 590 nM; in test [10], 60 to 670 nM; in test [11], 1690 nM. Moreover, the “distribution of HepG2 cells in the cell cycle phases” value in [12] is “significant dose-dependent decrease in the percentage of cells in the G0/G1 and S phases, accompanied by a concomitant percentage increase of cells in the G2/M phase, and appearance of a subG1-cell population”.
